Our source for the IC50 and Activity values is ChEMBL document CHEMBL3779877, “Anticancer activity studies of cubebin isolated from Piper cubeba and its synthetic derivatives” (Bioorg Med Chem Lett, 2016).

Assay [1] concerns KB. Nature of the assay: Cytotoxicity against human KB cells assessed as reduction in viable cells after 48 hrs by MTT assay. It counts as functional, cell-based. Background: Tetrazolium assays rely on reduction of a dye to a coloured formazan, in cell work by metabolically active cells.
Assay [2] deals with A549. Nature of the assay: Cytotoxicity against human A549 cells assessed as reduction in viable cells after 48 hrs by MTT assay. The assay is classed as functional, cell-based. The following applies: A549, 48 h.
A short description of assay [3]: Cytotoxicity against human HCT116 cells assessed as reduction in viable cells after 48 hrs by MTT assay. It counts as functional, cell-based. The following applies: HCT-116, 48 h.
Assay [4] deals with K562. Nature of the assay: Cytotoxicity against human K562 cells assessed as reduction in viable cells after 48 hrs by MTT assay. It counts as functional, cell-based. The following applies: K562, 48 h.
Assay [5] deals with HT-29. Briefly: Cytotoxicity against human HT-29 cells assessed as reduction in viable cells after 48 hrs by MTT assay. The assay is classed as functional, cell-based. The following applies: HT-29, 48 h.
Assay [6] concerns SiHa. Nature of the assay: Cytotoxicity against human SiHa cells assessed as reduction in viable cells after 48 hrs by MTT assay. It counts as functional, cell-based.
For assay [7], the system named is KB. Nature of the assay: Induction of apoptosis in human KB cells assessed as cell shrinkage at cytotoxic IC50 after 48 hrs by AO/EB dual staining based fluorescent microscopic analysis. The assay is classed as functional.
Assay [8] concerns A549. Briefly: Induction of apoptosis in human A549 cells assessed as membrane blebbing at cytotoxic IC50 after 48 hrs by AO/EB dual staining based fluorescent microscopic analysis. It counts as functional, cell-based.
For assay [9], the system named is KB. Nature of the assay: Induction of apoptosis in human KB cells assessed as condensed nuclei at cytotoxic IC50 after 48 hrs by Hoechst 33342 staining based fluorescent microscopic analysis. It counts as functional, cell-based.
In assay [10] the test system is KB. Nature of the assay: Induction of apoptosis in human KB cells assessed as membrane blebbing at cytotoxic IC50 after 48 hrs by AO/EB dual staining based fluorescent microscopic analysis. The assay is classed as functional, cell-based.
For assay [11], the system named is A549. Briefly: Induction of apoptosis in human A549 cells assessed as cell shrinkage at cytotoxic IC50 after 48 hrs by AO/EB dual staining based fluorescent microscopic analysis. It counts as functional.
Assay [12] concerns A549. Briefly: Induction of apoptosis in human A549 cells assessed as loss of normal nuclear architecture at cytotoxic IC50 after 48 hrs by inverted microscopic analysis. It counts as functional, cell-based.
The subject of assay [13] is A549. Briefly: Induction of apoptosis in human A549 cells assessed as detached cells at cytotoxic IC50 after 48 hrs by inverted microscopic analysis. It counts as functional, cell-based.
The test system of assay [14] is A549. Nature of the assay: Induction of apoptosis in human A549 cells assessed as fragmented nuclei at cytotoxic IC50 after 48 hrs by Hoechst 33342 staining based fluorescent microscopic analysis. The assay is classed as functional, cell-based.
Assay [15] deals with KB. Nature of the assay: Induction of apoptosis in human KB cells assessed as chromosomal condensation at cytotoxic IC50 after 48 hrs by AO/EB dual staining based fluorescent microscopic analysis. It counts as functional, cell-based.
The subject of assay [16] is KB. Nature of the assay: Induction of apoptosis in human KB cells assessed as loss of normal nuclear architecture at cytotoxic IC50 after 48 hrs by inverted microscopic analysis. It counts as functional, cell-based.
Assay [17] relates to KB. Briefly: Induction of apoptosis in human KB cells assessed as detached cells at cytotoxic IC50 after 48 hrs by inverted microscopic analysis. It counts as functional, cell-based.
Assay [18] has as its system A549. Nature of the assay: Induction of apoptosis in human A549 cells assessed as condensed nuclei at cytotoxic IC50 after 48 hrs by Hoechst 33342 staining based fluorescent microscopic analysis. It counts as functional, cell-based.
The test system of assay [19] is A549. Briefly: Induction of apoptosis in human A549 cells assessed as cell shrinkage at cytotoxic IC50 after 48 hrs by inverted microscopic analysis. It counts as functional, cell-based.
Assay [20] deals with KB. Briefly: Induction of apoptosis in human KB cells assessed as fragmented nuclei at cytotoxic IC50 after 48 hrs by Hoechst 33342 staining based fluorescent microscopic analysis. The assay is classed as functional, cell-based.
Assay [21] relates to A549. Briefly: Induction of apoptosis in human A549 cells assessed as chromosomal condensation at cytotoxic IC50 after 48 hrs by AO/EB dual staining based fluorescent microscopic analysis. The assay is classed as functional, cell-based.
Assay [22] has as its system KB. Nature of the assay: Induction of apoptosis in human KB cells assessed as cell shrinkage at cytotoxic IC50 after 48 hrs by inverted microscopic analysis. It counts as functional, cell-based.
Assay [23] can be described thus: Cytotoxicity against human HCT116. It counts as functional. The following applies: HCT-116.

Calls of active or inactive are those of the source. The rule behind the calls is not given here.

As usually defined, the IC50 is the concentration that gives 50% inhibition. Consider `O=C(NCCO)[C@@H](Cc1ccc2c(c1)OCO2)[C@@H](CO)Cc1ccc2c(c1)OCO2`, for which the IC50 is 7.96 µM in [1]; greater than 100 µM in assay [2]; 45.2 µM in [3]; 87.4 µM in assay [4]; 51.1 µM in [5]; 85.2 µM in assay [6].
With `O=C(NCc1ccccc1)[C@@H](Cc1ccc2c(c1)OCO2)[C@@H](CO)Cc1ccc2c(c1)OCO2`, the concentration for half-maximal inhibition (IC50) in [1] is 9.16 µM; in [2], 10.8 µM; in assay [3] it was 93.5 µM; in [4] it was 8.6 µM; in [5], 68 µM; in assay [6] it was greater than 100 µM.
Consider `O=C1[C@@H](Cc2ccc3c(c2)OCO3)[C@H](Cc2ccc3c(c2)OCO3)C(=O)N1CCc1ccccc1`, for which the IC50 in [1] was 62.6 µM; in [2], greater than 100 µM; in assay [3], 64 µM; in assay [4] it was 9.15 µM; in assay [5] it was 66.5 µM; in [6] it was 96.3 µM.
For the compound `O=C1OC[C@@H](Cc2ccc3c(c2)OCO3)[C@@H]1Cc1ccc2c(c1)OCO2`, the result in [7], in assay [8], in assay [9], in assay [10], in assay [11] and in assay [12] was Active. Moreover, the outcome in assay [13], in assay [14], in assay [15], in assay [16], in [17] and in assay [18] was Active. The result in [19], in [20], in assay [21] and in assay [22] was Active. For the same compound, the IC50 in assay [1] stood at 7.68 µM; in assay [2] it was 7.86 µM; in assay [3], 72.6 µM; in assay [4], 9.07 µM; in [5] it was 35.7 µM; in assay [6], 68.4 µM.
Regarding `OC1OC[C@@H](Cc2ccc3c(c2)OCO3)[C@@H]1Cc1ccc2c(c1)OCO2` (some centres not stated), the IC50 in assay [1] was 8.16 µM; in assay [2], 8.3 µM; in [3], 45.1 µM; in [4] it was 8.66 µM; in [5], 45.2 µM; in [6], greater than 100 µM.
`O=C(NCCc1ccccc1)[C@@H](Cc1ccc2c(c1)OCO2)[C@@H](CO)Cc1ccc2c(c1)OCO2`: the IC50 is 7.09 µM in assay [1]; 7.28 µM in assay [2]; 7.83 µM in [3]; 7.91 µM in [4]; 58.9 µM in assay [5]; 57.5 µM in [6].
As to `COc1cc([C@@H]2c3cc4c(cc3[C@@H](O[C@@H]3O[C@@H]5CO[C@@H](C)O[C@H]5[C@H](O)[C@H]3O)[C@H]3COC(=O)[C@H]23)OCO4)cc(OC)c1O` [ETOPOSIDE], the IC50 in [4] was determined as 4.39 µM.
As to `O=C(NCc1ccc(F)cc1)[C@@H](Cc1ccc2c(c1)OCO2)[C@@H](CO)Cc1ccc2c(c1)OCO2`, the IC50 in assay [1] was determined as 33.8 µM; in [2], 8.94 µM; in assay [3] it was 34.1 µM; in [4], 7.76 µM; in assay [5], 24.6 µM; in assay [6], 80 µM.
The compound `COc1cc([C@@H]2c3cc4c(cc3[C@H](O)[C@H]3COC(=O)[C@H]23)OCO4)cc(OC)c1OC` [PODOFILOX] returned an IC50 in assay [23] of 0.01 µM.
As for `COc1ccc(CN2C(=O)[C@@H](Cc3ccc4c(c3)OCO4)[C@H](Cc3ccc4c(c3)OCO4)C2=O)cc1`, the IC50 was 9.13 µM in [1]; 45.5 µM in [2]; greater than 100 µM in assay [3]; 8.69 µM in assay [4]; 72.6 µM in assay [5]; 33.4 µM in [6].
Turning to `O=C(NCc1c[nH]c2ccccc12)[C@@H](Cc1ccc2c(c1)OCO2)[C@@H](CO)Cc1ccc2c(c1)OCO2`, the outcome in assay [7], in [9], in assay [10], in assay [15], in assay [16] and in assay [17] was Active. Moreover, the outcome in [20] and in [22] was Active. Also, the 50% inhibitory concentration (IC50) in assay [1] is 6.38 µM; in assay [2], greater than 100 µM; in assay [3], greater than 100 µM; in [4] it was greater than 100 µM; in [5], 52.1 µM; in [6], greater than 100 µM.
On to `O=C1[C@@H](Cc2ccc3c(c2)OCO3)[C@H](Cc2ccc3c(c2)OCO3)C(=O)N1Cc1ccccc1`, for which the IC50 was 7.36 µM in [1]; 58.6 µM in assay [2]; 65.4 µM in assay [3]; 8.88 µM in assay [4]; 71.8 µM in assay [5]; greater than 100 µM in [6].
With `OC[C@@H](Cc1ccc2c(c1)OCO2)[C@@H](CO)Cc1ccc2c(c1)OCO2`, the IC50 in [1] was 7.82 µM; in assay [2], 75.5 µM; in assay [3] it was 85.3 µM; in assay [4], 30.2 µM; in assay [5], greater than 100 µM; in assay [6], greater than 100 µM.
In the case of `CC(C)CCN1C(=O)[C@@H](Cc2ccc3c(c2)OCO3)[C@H](Cc2ccc3c(c2)OCO3)C1=O`, the IC50 was 7.71 µM in assay [1]; greater than 100 µM in assay [2]; 67.7 µM in assay [3]; greater than 100 µM in [4]; 66.2 µM in [5]; 89.3 µM in [6].
As to `O=C1[C@@H](Cc2ccc3c(c2)OCO3)[C@H](Cc2ccc3c(c2)OCO3)C(=O)N1Cc1ccc(F)cc1`, the concentration for half-maximal inhibition (IC50) is 8.95 µM in [1]; greater than 100 µM in [2]; greater than 100 µM in assay [3]; greater than 100 µM in assay [4]; 72.1 µM in assay [5]; greater than 100 µM in assay [6].
For `O=C(NCc1ccc(C(F)(F)F)cc1)[C@@H](Cc1ccc2c(c1)OCO2)[C@@H](CO)Cc1ccc2c(c1)OCO2`, the IC50 is 19.2 µM in assay [1]; greater than 100 µM in [2]; greater than 100 µM in assay [3]; 8.86 µM in [4]; 64.9 µM in [5]; 73.7 µM in [6].
Take `CC(C)CCNC(=O)[C@@H](Cc1ccc2c(c1)OCO2)[C@@H](CO)Cc1ccc2c(c1)OCO2`: the IC50 in [1] stood at 8.94 µM; in assay [2] it was 8.75 µM; in assay [3], 66.8 µM; in [4], 48.8 µM; in [5], 23.8 µM; in assay [6], 95.8 µM.
As to `O=C(O)CC1OC[C@@H](Cc2ccc3c(c2)OCO3)[C@@H]1Cc1ccc2c(c1)OCO2` (some centres not stated), the IC50 in [1] is 73.9 µM; in assay [2] it was 52.9 µM; in assay [3], greater than 100 µM; in assay [4] it was 7.94 µM; in [5] it was greater than 100 µM; in assay [6], greater than 100 µM.
`COc1ccc(CNC(=O)[C@@H](Cc2ccc3c(c2)OCO3)[C@@H](CO)Cc2ccc3c(c2)OCO3)cc1`: the outcome in assay [8], in [11], in assay [12], in assay [13], in [14] and in assay [18] was Active. The result in assay [19] and in assay [21] was Active. Further, the IC50 in assay [1] was 9.17 µM; in assay [2], 6.61 µM; in assay [3] it was 46.1 µM; in assay [4], 8.37 µM; in [5] it was 51.1 µM; in assay [6], 91.5 µM.
As for `COc1cccc(CNC(=O)[C@@H](Cc2ccc3c(c2)OCO3)[C@@H](CO)Cc2ccc3c(c2)OCO3)c1`, the concentration for half-maximal inhibition (IC50) was 80.5 µM in assay [1]; 7.28 µM in assay [2]; greater than 100 µM in [3]; 7.98 µM in assay [4]; 25.5 µM in assay [5]; 25.3 µM in assay [6].
